Experimental data: patent US5045566A, “Novel imidate insecticides” (ICI Americas Inc., priority 1989, dated 1991)

Tests used:
Assay type in all cases: in vivo
[1] = system: Cabbage Looper [Trichoplusia ni (Hubner)]; test: Cabbage looper leaf dip (CL), 3-5 days; conditions: percent in solution, second-instar larvae
Outline: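 Leaf dip, squash cotyledons, 50-50 acetone-water, top dose 0.1% and lower. 5 second-instar larvae/dish, moist filter paper, high-humidity chamber. Mortality at 3-5 d; LC50 (% in solution) from dosage-mortality curves.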

[2] = system: Housefly [Musca domestica]; test: Housefly contact mortality in dishes (HF), 48 hours; conditions: μg of test compound per 25 female flies
Outline: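 Acetone solutions (with 0.01% peanut oil) dried onto dish bottoms, then 25 female flies, 1-2 days old, caged over the residue with sugar water. Mortality scored at 48 hours; LC50 from dosage-mortality curves, in μg per 25 female flies, top level 100 μg.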

[3] = system: Tobacco Budworm [Heliothis virescens (Fabricius)] eggs; test: Tobacco budworm eggs (TBW-E); conditions: percent in solution; 2-day old eggs
Outline: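 LC50 values (percent test compound in the dip solution) were calculated from dosage-mortality curves. Egg patches, 2 days old, were dipped in acetone solutions at concentrations from 0.1% downward and held at 78° F on rearing medium until control larvae hatched and fed.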

[4] = system: Black Bean Aphid [Aphis fabae (Scop.)]; test: Black bean aphid spray test on nasturtium (BBA), 48 hours; conditions: percent of test compound in sprayed solution
Outline: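 LC50, given as percent test compound in the sprayed liquid, was calculated from dosage-mortality curves using concentrations from 0.05% downward. Sprays in 50:50 acetone-water went to runoff on ~5 cm nasturtiums carrying 25-50 aphids of mixed ages, one day after infestation. Deaths were counted 48 h later under greenhouse conditions.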

[5] = system: Maize weevil [Sitophilus zeamais (Motschulsky)]; test: Maize weevil on dipped corn seeds (MW), 48 hours; conditions: percent in solution, adult weevils
Procedure: The compounds in Tables 1 and 2 above were tested for insecticidal activity using the following testing procedures. LC50 values, based on the results of these tests and calculated according to dosage-mortality curves, are expressed in Table 3.
Maize weevil [Sitophilus zeamais (Motschulsky)]:
Test compounds were diluted in a 50:50 acetone:water solution. Four corn seeds [Zea mays (L.)] which had been immersed in test solutions for 2-3 seconds and allowed to dry were placed in containers together with 10 adult weevils. The containers were covered and kept at a temperature of about 25° C. Mortality was recorded after 48 hours. Test concentrations ranged from 0.01% down to that at which 50% mortality occurred. The LC50 values are expressed below in Table 3 under the heading "MW" in terms of percent of the test compound in solution.

Row | SMILES | LC50 CL [1] [%] | LC50 HF [2] [µg] | LC50 TBW E (eggs) [3] [%] | LC50 BBA [4] [%] | LC50 MW [5] [%]
1 | Clc1ccc(N=C(OCc2cccc(Oc3ccccc3)c2)C2CCC2)cc1 [Compound 8] | 0.01 | 50 | > 0.1 | 0.03 | > 0.01
2 | CC(C)(C)C(=Nc1cccc(C(F)(F)F)c1)OCc1cccc(Oc2ccccc2)c1 [Compound 88] | 0.018 | > 100 | > 0.1 | > 0.05 | > 0.01
3 | CCc1ccc(N=C(OCc2cccc(Oc3ccccc3)c2)C(C)(C)C)cc1 [Compound 163] | 0.004 | > 100 | > 0.1 | > 0.05 | > 0.01
4 | CC(C)C(=Nc1ccc(F)c(Cl)c1)OCc1cccc(Oc2cccc(Cl)c2)c1 [Compound 203] | 0.0025 | 43 | 0.06 | 0.006 | > 0.01
5 | CC(C)C(=Nc1ccc(F)c(I)c1)OCc1ccc(F)c(Oc2ccccc2)c1 [Compound 334] | 0.0007 | 9 | 0.013 | 0.0006 | > 0.01
6 | CC(C)c1ccc(N=C(OCc2cccc(Oc3ccccc3)c2)C2CCC2)cc1 [Compound 339] | 0.017 | > 100 | > 0.1 | 0.03 | > 0.01
7 | CC(C)C(=Nc1ccc(Cl)c(C(F)(F)F)c1)OCc1ccc(F)c(Oc2ccc(F)cc2)c1 [Compound 340] | 0.00037 | 34 | 0.04 | 0.001 | 0.0069
8 | CC(C)C(=Nc1cccc(Cl)c1)OCc1ccc(F)c(Oc2ccc(F)cc2)c1 [Compound 341] | 0.0005 | 4 | 0.023 | 0.0005 | > 0.01
9 | CC(C)C(=Nc1cccc(F)c1)OCc1ccc(F)c(Oc2ccc(F)cc2)c1 [Compound 342] | 0.0008 | 4.1 | 0.04 | 0.0006 | > 0.01
10 | Cc1ccc(Oc2cccc(COC(=Nc3ccc(C(C)(C)C)cc3)C(C)C)c2)cc1 [Compound 344] | 0.024 | > 100 | > 0.1 | 0.008 | > 0.01
11 | COc1ccc(Oc2cccc(COC(=Nc3ccc(C(C)(C)C)cc3)C(C)C)c2)cc1 [Compound 345] | 0.018 | > 100 | > 0.1 | 0.006 | > 0.01
12 | CCOc1ccc(N=C(OCc2cccc(Oc3ccccc3)c2)C(C)C)cc1Cl [Compound 368] | 0.002 | < 100 | 0.04 | 0.001 | > 0.01
13 | CCOc1ccc(N=C(OCc2cccc(Oc3ccccc3)c2)C(C)C)cc1 [Compound 371] | 0.0022 | < 100 | > 0.1 | 0.0004 | > 0.01
14 | CCOc1ccc(N=C(OCc2ccc(F)c(Oc3ccc(Cl)cc3)c2)C(C)C)cc1 [Compound 372] | > 0.1 | > 100 | > 0.1 | 0.001 | > 0.01
15 | CCOc1ccc(N=C(OCc2ccc(F)c(Oc3ccccc3)c2)C(C)C)cc1 [Compound 373] | > 0.1 | < 100 | > 0.1 | 0.001 | > 0.01
16 | CC(C)C(=Nc1ccc(I)c(Cl)c1)OCc1cccc(Oc2ccc(F)cc2)c1 [Compound 374] | 0.00058 | < 100 | 0.02 | 0.0008 | > 0.01
17 | CC(C)C(=Nc1ccc(F)c(Br)c1)OCc1ccc(F)c(Oc2ccc(Cl)cc2)c1 [Compound 379] | 0.00075 | < 100 | 0.02 | 0.0006 | > 0.01
18 | CC(C)C(=Nc1ccc(Br)c(Br)c1)OCc1ccc(F)c(Oc2ccc(F)cc2)c1 [Compound 383] | 0.00029 | < 100 | 0.038 | 0.0006 | > 0.01
19 | CC(C)C(=Nc1ccc(Br)c(Br)c1)OCc1ccc(F)c(Oc2ccccc2)c1 [Compound 384] | > 0.1 | < 100 | 0.025 | 0.0008 | > 0.01
20 | CC(C)C(=Nc1ccc(I)c(Cl)c1)OCc1ccc(F)c(Oc2ccc(F)cc2)c1 [Compound 385] | > 0.1 | < 100 | > 0.1 | > 0.05 | > 0.01
21 | CC(C)C(=Nc1cccc(Br)c1)OCc1ccc(F)c(Oc2ccc(Cl)cc2)c1 [Compound 386] | 0.0012 | < 100 | > 0.1 | 0.002 | > 0.01
22 | CC(C)C(=Nc1cccc(OC(F)(F)F)c1)OCc1ccc(F)c(Oc2ccc(Cl)cc2)c1 [Compound 436] | – | < 100 | < 0.1 | 0.0006 | > 0.01
23 | Fc1ccc(COC(=Nc2ccc(C(F)(F)F)cc2)C2CC2)cc1Oc1ccccc1 [Compound 443] | 0.00015 | < 100 | – | 0.0003 | < 0.01
24 | Fc1ccc(COC(=Nc2ccc(C(F)(F)F)cc2)C2CC2)cc1Oc1ccc(Cl)cc1 [Compound 444] | 0.00015 | > 100 | – | 0.0006 | > 0.01
25 | CC(C)C(=Nc1ccc2c(c1)OCO2)OCc1coc(Cc2ccccc2)c1 [Compound 483] | 0.001 | 6 | 0.05 | – | > 0.01
26 | CC(C)C(=Nc1ccc(F)cc1F)OCc1coc(Cc2ccccc2)c1 [Compound 486] | > 0.1 | 15 | > 0.1 | – | > 0.01
27 | CC(C)C(=Nc1cccc(C(F)(F)F)c1)OCc1ccnc(Oc2ccc(F)cc2)c1 [Compound 508] | 0.013 | > 100 | > 0.1 | – | > 0.01
